One may read the IC50 as the concentration at which inhibition is half-maximal.

Entries after “also recorded” stand apart in the source; their conditions may differ. Like-named read-outs stand apart in the source and are kept apart here. Residues, ends and D or L forms follow the SMILES beside them. *: point of attachment. Cbz = O=C(OCc1ccccc1)*; CH2F = FC*

Test [1] deals with Hela cells. Put plainly: 3-day in vitro proliferation assay, AlamarBlue, Hela cells. The format is cell-based. The following applies: for anti cancer efficacy in combination with TH-302: HeLa cervical cell line. How it is done:
(§1) After a wash to remove drugs, cells were incubated with fresh media at 37° C. for an additional 3 days in the presence of a Chk1 inhibitor. Cell viability was determined using AlamarBlue. For a doxorubicin group (doxorubicin also induces cell cycle arrest in the G2/M phase and was used as a non-hypoxia activated prodrug control), cells were co-treated with doxorubicin and Chk1 inhibitors for 3 days.

Test [2] deals with HT29 cells. Put plainly: 3-day in vitro proliferation assay, AlamarBlue, HT29 cells. The note with it: for anti cancer efficacy in combination with TH-302: HT-29 colon cell line. The format is cell-based. How it is done: as §1
On the technique in general: Alamar Blue is a resazurin reagent that responds to reducing activity.

For test [3], the system named is H460 cells. Briefly: 3-day in vitro proliferation assay, AlamarBlue, H460 cells. The format is cell-based. The note with it: for anti cancer efficacy in combination with TH-302: H460 non-small cell lung cell line; for change of activity by the presence of Chk1 inhibitors: H460, p53 wild type. How it is done: as §1
The test system of test [4] is AA8 CHO cells. Briefly: Cytotoxicity in HDR proficient AA8 CHO cells. In kind it is cell-based. The following applies: Cricetulus griseus. How it is done: as §1
(§2) To investigate which DNA repair system is affected by Chk-1 inhibitor-mediated enhancement of TH-302 cytotoxicity, CHO cell-based DNA repair mutant cell line pairs were utilized. The experimental details were as described in Example 1. […] HDR (homology-dependent repair) is the specific type of DNA repair capable of repairing TH-302-induced DNA damage.

Test [5] concerns p53 deficient cells. Put plainly: Proliferation assay in p53 deficient cells (Horizon Discovery). The format is cell-based. How it is done:
as §1
(§3) Cells (provided by Horizon Discovery Ltd. and generated using Horizon's adeno-associated virus (AAV) technology Genesis™) were treated as described in Example 1.

In test [6] the test system is irs1SF. Put plainly: Cytotoxicity in HDR deficient irs1SF cells. In kind it is cell-based. How it is done: as §1, §2
Test [7] relates to Cdc2-Y15 phosphorylation. Put plainly: Immunoblot of Cdc2-Y15 phosphorylation and protein expression. In kind it is cell-based. The following applies: for Cdc2-Y15 phosphorylation / DNA damaging agent-induced increase of Cdc2-Y15 phosphorylation in the presence of the Chk1 inhibitor: HeLa; for Cdc2-Y15 phosphorylation: agent alone; for DNA damaging agent-induced increase of Cdc2-Y15 phosphorylation in the presence of the Chk1 inhibitor: with Chk1 inhibitor. How it is done: (§4) HeLa cells were treated with TH-302 and a Chk1 inhibitor as described in Example 1. Cells were harvested and analyzed for cell cycle distribution by flow cytometry and for protein expression by immunoblot.
A general note: In western blotting, separated proteins are transferred to a membrane and probed.

Test [8] concerns Hela cells. Briefly: Cell cycle distribution by flow cytometry. The format is cell-based. How it is done:
as §4
On the technique in general: A flow cytometer gives signals particle by particle.

Test [9] has as its system UV41. Briefly: Cytotoxicity in HDR deficient UV41 cells. In kind it is cell-based. How it is done:
as §1, §2

Test [10] concerns γH2AX. Put plainly: γH2AX immunofluorescence (DNA damage response). The format is cell-based. The following applies: p53−/− HT29 cells; 2 hr normoxic or hypoxic, then 4 hr; AZD7762 0.1 μM. How it is done:
HT29 cells were permeabilized with 1% Triton X-100 and incubated with γH2AX monoclonal antibody for 2 hr and goat anti-mouse-FITC for 1 hr. Cells were imaged using a fluorescent microscope (Nikon TS-100).

Test [11] deals with Du145 cells. Briefly: 3-day in vitro proliferation assay, AlamarBlue, Du145 cells. In kind it is cell-based. The note with it: Du145, p53 heterozygous. How it is done: as §1
Appropriate Du145 and H460 cells were treated with TH-302 and Chk1 inhibitors as described in Example 1.

Test [12] concerns p53 proficient cells. Briefly: Proliferation assay in p53 proficient cells (Horizon Discovery). The format is cell-based. How it is done:
as §1, §3

In test [13] the test system is HT29 cells. Briefly: Luminescence-based caspase activity assay (Caspase Glo3/7), apoptosis. The format is cell-based. The note with it: for induction of apoptosis: TH-302 0-10 μM air, 0-1 μM N2, AZD7762 0.1 μM, 2 hr + 46 hr. How it is done: Induction of apoptosis was also assessed. HT29 cells were seeded at a density of 40,000 cells per well of a 24 well plate. […] A luminescence-based caspase activity assay was performed. […] To validate the specificity of apoptotic signal, the pan-caspase inhibitor ZVAD was included in the testing.

The test system of test [14] is HT-29 tumor. Briefly: HT29 xenograft antitumor activity. The note with it: HT-29 tumor-bearing mice, i.p., drug alone (TH-302 50 mg/kg QD×5/wk×2 wks or 100 mg/kg twice/wk×2 wks; AZD7762 12.5 mg/kg). The format is in vivo.
Test [15] concerns Rad51. Briefly: Immunoblot of Rad51 expression. In kind it is cell-based. The note with it: HT29; samples as for the Histone H3 blot. How it is done:
To explore involved signaling pathways, an immunoblot analysis was conducted. HT29 cells were seeded in p60 dishes at a density of 2×10^6 cells per dish and incubated overnight for cell attachment. […] Insoluble debris was pelleted and the protein concentration of the resulting supernatant determined using a Sigma BCA kit (St. Louis, Mo.). About 10 μg of protein from each sample were loaded onto and SDS gel and electrophoresed and then electrotransferred to a nitrocellulose membrane. Proteins were detected with an electrochemiluminescent detection system (ChemiGlow; Protein Simple, Santa Clara, Calif.) using antibodies recognizing Histone H3.
The samples were collected as described above for the Histone H3 blot. In response to TH-302, Rad51 expression levels were increased.

The target in test [16] is Chk2 (Homo sapiens, UniProt O96017). The note with it: read-out: IC50 for Chk2; cited from earlier work.
Sequence of Chk2 (O96017 whole entry): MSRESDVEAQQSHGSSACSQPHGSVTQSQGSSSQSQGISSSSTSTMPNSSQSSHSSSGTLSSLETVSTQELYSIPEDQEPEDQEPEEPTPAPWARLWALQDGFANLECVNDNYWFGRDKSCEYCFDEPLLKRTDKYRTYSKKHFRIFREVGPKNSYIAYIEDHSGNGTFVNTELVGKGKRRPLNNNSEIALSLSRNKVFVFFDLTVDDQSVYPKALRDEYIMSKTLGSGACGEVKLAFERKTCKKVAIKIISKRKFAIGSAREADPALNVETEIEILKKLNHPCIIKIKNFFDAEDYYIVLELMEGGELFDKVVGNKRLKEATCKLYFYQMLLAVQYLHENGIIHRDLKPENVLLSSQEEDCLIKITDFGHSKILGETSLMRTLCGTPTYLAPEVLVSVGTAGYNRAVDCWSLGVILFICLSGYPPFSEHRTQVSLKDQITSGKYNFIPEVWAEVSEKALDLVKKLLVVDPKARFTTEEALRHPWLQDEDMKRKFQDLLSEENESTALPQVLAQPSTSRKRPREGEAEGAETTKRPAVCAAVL

In the case of `Cc1cnc(NC(=O)Nc2cc(Br)c(C)cc2OC[C@@H]2CNCCO2)cn1` [LY2603618], the results for the “anti cancer efficacy in combination with TH-302” value (shortened to “anti cancer efficacy”) in test [1], in test [2] and in test [3] were “increased anti cancer efficacy”, “increased anti cancer efficacy” and “not”, respectively.

Consider `Cn1c(COP(=O)(NCCBr)NCCBr)cnc1[N+](=O)[O-]` [TH-302], for which the concentration for half-maximal inhibition (IC50) was found to be 3.2 µM in [4] (AA8, N2, read-out: IC50 of TH-302 monotherapy); 1.2 µM in test [4] (AA8, N2, with AZD7762 (0.1 μM), read-out: TH-302 IC50); 490 µM in [4] (AA8, air, read-out: IC50 of TH-302 monotherapy); 260 µM in test [4] (AA8, air, with AZD7762 (0.1 μM), read-out: TH-302 IC50); 0.4 µM in test [6] (N2, read-out: IC50 of TH-302 monotherapy); 0.3 µM in test [6] (N2, with AZD7762 (0.1 μM), read-out: TH-302 IC50). Further, the half-inhibitory concentration (IC50) in [6] (air, read-out: IC50 of TH-302 monotherapy) stood at 54 µM; in test [6] (air, with AZD7762 (0.1 μM), read-out: TH-302 IC50) it was 63 µM; in test [9] (UV41, N2, with AZD7762 (0.1 μM), read-out: TH-302 IC50), 0.06 µM; in test [9] (UV41, N2, read-out: IC50 of TH-302 monotherapy), 0.07 µM; in [9] (UV41, air, with AZD7762 (0.1 μM), read-out: TH-302 IC50), 26 µM; in test [9] (UV41, air, read-out: IC50 of TH-302 monotherapy), 29 µM. The “change of activity by co-treatment with a Chk1 inhibitor” value in test [5] is on record as “significantly enhanced”; in [12], “not”. The “expression of Cdc-2, Myt1 and Chk1” value in test [7] is given as “does not affect”. For the same compound, the Cdc2-Y15 phosphorylation result in [7] was “upregulate phosphorylation of Cdc2-Y15”. For the same compound, in [7], the “DNA damaging agent-induced increase of Cdc2-Y15 phosphorylation in the presence of the Chk1 inhibitor” value is listed as “completely eliminated”. For the same compound, the “enhancement of TH-302 activity by the presence of a Chk1 inhibitor” value in test [1] (Hela, p53-deficient, any one of PF477736, AZD7762, LY2603618) was in the range of 15 to 50 fold; in test [2] (HT29, p53-deficient, any one of PF477736, AZD7762, LY2603618), 15 to 50 fold. The “change of activity by the presence of Chk1 inhibitors” value in [1] (Hela, 0.4 μM PF477736, 0.1 μM AZD7762 or 0.5 μM LY2603618, normoxia or hypoxia) is on record as “significantly enhanced”; in test [2] (HT29, 0.4 μM PF477736, 0.1 μM AZD7762 or 0.5 μM LY2603618, normoxia or hypoxia) it was “significantly enhanced”; in test [11], “not enhanced”; in test [3] it was “not enhanced; also recorded: not affected”. The cell cycle arrest entry in [8] (agent alone) is given as “concentration-dependent cell cycle arrest at G2/M”. Moreover, the “TH-302-mediated G2/M arrest in the presence of the Chk1 inhibitor” value in [8] (with Chk1 inhibitor) is “abrogated”. For the same compound, the γH2AX staining entry in [10] is recorded as “could induce γH2AX”. In test [13], the induction of apoptosis result is listed as “did not induce apoptosis”. Besides, the tumor growth result in test [14] was “produced a growth delay”. In addition, in test [15], the Rad51 expression levels result is on record as “increased”.

As to `NC(=O)Nc1cc(-c2cccc(F)c2)sc1C(=O)N[C@H]1CCCNC1` [AZD7762], the “anti cancer efficacy” value in test [1] is “increased anti cancer efficacy”; in [2], “increased anti cancer efficacy”; in test [3], “not”. Moreover, in test [16], the IC50 was under 0.01 µM. Moreover, the γH2AX staining result in test [10] is “could induce γH2AX”. For the same compound, the induction of apoptosis result in test [13] is “slight increase”. In addition, the tumor growth entry in test [14] is “produced a growth delay”.

For the compound PF477736, the “anti cancer efficacy” value was “increased anti cancer efficacy” in [1], “increased anti cancer efficacy” in test [2] and “not” in test [3].

Take `CC(NC(=O)C(NC(=O)OCc1ccccc1)C(C)C)C(=O)NC(CC(=O)O)C(=O)CF` (stereo not drawn) [ZVAD] (Cbz-Val-Ala-Asp-CH2F; configuration not given here): in test [13] (added to TH-302 and AZD7762), the “apoptotic signal generated by the combination therapy” value is “reduced the apoptotic signal”.

Take `COc1cccc2c1C(=O)c1c(O)c3c(c(O)c1C2=O)C[C@@](O)(C(=O)CO)C[C@@H]3O[C@H]1C[C@H](N)[C@H](O)[C@H](C)O1` [doxorubicin, reference compound]: the Cdc2-Y15 phosphorylation result in [7] was “upregulate phosphorylation of Cdc2-Y15”. For the same compound, the “DNA damaging agent-induced increase of Cdc2-Y15 phosphorylation in the presence of the Chk1 inhibitor” value in test [7] was “completely eliminated”. In addition, the “change of activity by the presence of Chk1 inhibitors” value in test [11] and in test [3] was “lack of enhanced activity” in each case.
